# Measurements taken from US9340590B2 (priority 2011, dated 2016).
# Like-named read-outs stand apart in the source and are kept apart here. Positions of bridges follow the written chain, without caps; N, C: chain ends. Non-standard residues stand in square brackets, D forms with d. Residues, ends and D or L forms follow the SMILES beside them. 1Nal = N[C@@H](Cc1cccc2ccccc12)C(=O)O
# How the values were obtained:
# Experiment in all cases: cell-based
# hNav1.3 = hNav1.3 (Homo sapiens, UniProt Q9NY46); conditions: IonWorks Quattro, read-out: IWQ Use Nav1.3
# hNav1.5 = hNav1.5 (Homo sapiens, UniProt Q14524)
# hNav1.7 = hNav1.7 (Homo sapiens, UniProt Q15858); format: cell-based; conditions: IonWorks Quattro
# [1] = IonWorks Quattro, use-dependent block, hNav1.5, read-out: IWQ Use Nav1.5
# [2] = use-dependent block, hNav1.7, read-out: IWQ Use Nav1.7
# hNav1.7, sequence (Q15858 whole entry, looked up): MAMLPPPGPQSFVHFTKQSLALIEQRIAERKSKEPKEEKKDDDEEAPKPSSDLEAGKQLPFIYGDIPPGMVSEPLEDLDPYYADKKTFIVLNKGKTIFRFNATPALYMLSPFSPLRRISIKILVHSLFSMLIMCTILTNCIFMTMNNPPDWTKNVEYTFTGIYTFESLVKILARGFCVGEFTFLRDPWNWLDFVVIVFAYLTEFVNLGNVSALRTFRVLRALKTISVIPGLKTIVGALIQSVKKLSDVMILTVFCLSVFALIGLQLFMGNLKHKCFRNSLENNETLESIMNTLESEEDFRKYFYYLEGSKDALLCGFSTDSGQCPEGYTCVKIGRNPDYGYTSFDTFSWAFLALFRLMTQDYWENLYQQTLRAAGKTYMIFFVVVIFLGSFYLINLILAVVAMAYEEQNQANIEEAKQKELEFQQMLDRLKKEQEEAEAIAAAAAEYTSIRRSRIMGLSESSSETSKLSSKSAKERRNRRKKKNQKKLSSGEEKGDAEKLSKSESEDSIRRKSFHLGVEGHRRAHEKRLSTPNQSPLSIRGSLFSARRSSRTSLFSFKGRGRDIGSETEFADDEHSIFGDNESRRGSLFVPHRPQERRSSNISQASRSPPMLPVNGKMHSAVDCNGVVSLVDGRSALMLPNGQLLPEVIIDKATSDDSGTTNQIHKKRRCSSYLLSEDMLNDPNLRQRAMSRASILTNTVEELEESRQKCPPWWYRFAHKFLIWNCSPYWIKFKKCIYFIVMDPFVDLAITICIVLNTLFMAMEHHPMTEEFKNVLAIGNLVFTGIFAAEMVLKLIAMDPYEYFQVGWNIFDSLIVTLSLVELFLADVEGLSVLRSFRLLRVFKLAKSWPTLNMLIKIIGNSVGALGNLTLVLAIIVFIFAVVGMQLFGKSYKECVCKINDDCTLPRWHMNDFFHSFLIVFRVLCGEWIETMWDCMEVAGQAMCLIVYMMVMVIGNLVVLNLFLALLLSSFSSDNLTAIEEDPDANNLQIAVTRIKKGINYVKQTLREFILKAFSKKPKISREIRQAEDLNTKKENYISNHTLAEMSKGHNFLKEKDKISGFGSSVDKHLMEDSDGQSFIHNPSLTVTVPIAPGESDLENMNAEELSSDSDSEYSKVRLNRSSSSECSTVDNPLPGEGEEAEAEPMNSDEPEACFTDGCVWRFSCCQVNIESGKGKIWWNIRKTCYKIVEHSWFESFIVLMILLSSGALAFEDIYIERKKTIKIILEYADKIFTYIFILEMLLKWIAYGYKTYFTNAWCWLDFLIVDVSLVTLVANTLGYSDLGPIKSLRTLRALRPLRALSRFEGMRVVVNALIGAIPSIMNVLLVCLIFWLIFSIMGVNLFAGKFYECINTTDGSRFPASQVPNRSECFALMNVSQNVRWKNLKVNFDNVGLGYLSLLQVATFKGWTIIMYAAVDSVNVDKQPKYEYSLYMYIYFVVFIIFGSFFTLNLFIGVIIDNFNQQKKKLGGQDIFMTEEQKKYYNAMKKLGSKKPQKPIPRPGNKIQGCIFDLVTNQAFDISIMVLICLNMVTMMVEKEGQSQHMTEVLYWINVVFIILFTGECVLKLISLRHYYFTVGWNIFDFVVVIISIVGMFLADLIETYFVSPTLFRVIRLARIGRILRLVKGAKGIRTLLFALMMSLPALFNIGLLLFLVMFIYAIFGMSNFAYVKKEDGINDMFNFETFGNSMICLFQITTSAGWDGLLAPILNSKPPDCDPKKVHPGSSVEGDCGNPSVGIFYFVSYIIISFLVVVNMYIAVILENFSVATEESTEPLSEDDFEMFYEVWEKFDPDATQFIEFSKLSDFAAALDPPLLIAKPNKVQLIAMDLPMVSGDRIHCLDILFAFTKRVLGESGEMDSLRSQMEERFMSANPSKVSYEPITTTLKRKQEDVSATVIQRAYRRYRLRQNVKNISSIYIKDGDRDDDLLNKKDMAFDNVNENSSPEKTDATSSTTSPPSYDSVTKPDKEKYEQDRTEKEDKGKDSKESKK
# hNav1.5, sequence (Q14524 whole entry, looked up): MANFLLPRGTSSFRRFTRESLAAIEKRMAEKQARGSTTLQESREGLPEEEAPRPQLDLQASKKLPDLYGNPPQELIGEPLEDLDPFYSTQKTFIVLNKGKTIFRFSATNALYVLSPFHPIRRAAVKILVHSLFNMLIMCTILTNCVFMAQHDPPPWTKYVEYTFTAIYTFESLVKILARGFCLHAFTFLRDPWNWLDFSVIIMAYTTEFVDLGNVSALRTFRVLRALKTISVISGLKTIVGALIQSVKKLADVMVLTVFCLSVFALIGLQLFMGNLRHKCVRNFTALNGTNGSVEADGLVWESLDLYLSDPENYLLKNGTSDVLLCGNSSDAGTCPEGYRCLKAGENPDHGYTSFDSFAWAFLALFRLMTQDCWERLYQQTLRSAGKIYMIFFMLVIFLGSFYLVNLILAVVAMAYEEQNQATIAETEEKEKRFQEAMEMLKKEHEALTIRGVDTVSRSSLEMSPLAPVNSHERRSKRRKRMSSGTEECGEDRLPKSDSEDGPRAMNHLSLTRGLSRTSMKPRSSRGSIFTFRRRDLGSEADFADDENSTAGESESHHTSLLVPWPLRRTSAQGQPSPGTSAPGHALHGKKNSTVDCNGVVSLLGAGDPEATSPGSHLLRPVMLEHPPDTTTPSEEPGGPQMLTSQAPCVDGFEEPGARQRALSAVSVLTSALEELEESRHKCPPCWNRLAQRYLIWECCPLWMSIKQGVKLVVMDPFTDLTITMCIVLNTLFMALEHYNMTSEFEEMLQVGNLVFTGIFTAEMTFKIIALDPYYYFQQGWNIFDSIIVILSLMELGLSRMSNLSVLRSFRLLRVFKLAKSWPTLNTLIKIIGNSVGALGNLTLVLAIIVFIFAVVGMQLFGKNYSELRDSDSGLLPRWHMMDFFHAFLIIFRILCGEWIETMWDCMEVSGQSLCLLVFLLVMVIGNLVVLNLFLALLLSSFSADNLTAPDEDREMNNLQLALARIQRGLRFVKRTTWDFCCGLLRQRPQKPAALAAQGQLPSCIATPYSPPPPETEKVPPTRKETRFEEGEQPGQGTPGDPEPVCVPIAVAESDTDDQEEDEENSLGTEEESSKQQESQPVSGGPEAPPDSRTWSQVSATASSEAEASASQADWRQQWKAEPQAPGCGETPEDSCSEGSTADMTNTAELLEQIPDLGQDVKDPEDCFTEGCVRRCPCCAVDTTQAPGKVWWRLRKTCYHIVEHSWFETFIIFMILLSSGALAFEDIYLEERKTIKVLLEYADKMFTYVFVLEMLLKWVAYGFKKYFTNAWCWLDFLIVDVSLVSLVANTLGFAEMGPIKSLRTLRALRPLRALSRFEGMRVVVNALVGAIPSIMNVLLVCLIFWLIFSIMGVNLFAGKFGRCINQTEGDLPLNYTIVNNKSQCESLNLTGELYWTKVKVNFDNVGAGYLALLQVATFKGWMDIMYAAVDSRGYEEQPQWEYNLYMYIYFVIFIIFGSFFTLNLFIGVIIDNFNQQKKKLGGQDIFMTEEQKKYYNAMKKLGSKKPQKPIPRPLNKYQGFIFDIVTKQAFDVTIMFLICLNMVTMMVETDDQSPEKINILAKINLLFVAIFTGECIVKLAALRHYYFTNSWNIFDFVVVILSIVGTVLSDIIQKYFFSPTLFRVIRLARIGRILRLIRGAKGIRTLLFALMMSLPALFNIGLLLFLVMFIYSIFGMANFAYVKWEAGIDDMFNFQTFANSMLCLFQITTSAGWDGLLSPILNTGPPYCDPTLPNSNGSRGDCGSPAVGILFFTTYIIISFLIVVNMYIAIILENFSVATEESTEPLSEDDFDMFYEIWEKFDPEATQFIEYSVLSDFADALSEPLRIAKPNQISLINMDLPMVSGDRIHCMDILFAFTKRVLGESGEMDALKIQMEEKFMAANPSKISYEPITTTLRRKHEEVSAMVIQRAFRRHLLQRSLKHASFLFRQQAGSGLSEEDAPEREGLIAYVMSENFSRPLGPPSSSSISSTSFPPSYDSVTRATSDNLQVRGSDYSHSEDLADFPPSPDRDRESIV
smiles,measurement,setting,value
"CC[C@H](C)[C@@H]1NC(=O)[C@@H]2CSSC[C@@H]3NC(=O)[C@H](C(C)C)NC(=O)[C@H](CC(C)C)NC(=O)[C@H](CC(N)=O)NC(=O)[C@@H]4CCCN4C(=O)[C@H](CCCNC(=N)N)NC(=O)[C@H](CSSC[C@H](NC(=O)[C@@H](N)CC(=O)O)C(=O)N[C@@H](CC(C)C)C(=O)NCC(=O)N[C@@H](Cc4ccccc4)C(=O)N[C@@H](CCSC)C(=O)N[C@@H](CCCNC(=N)N)C(=O)N[C@@H](CCCCN)C(=O)N2)NC(=O)[C@H](CSSC[C@@H](C(=O)N[C@@H](CCCCN)C(=O)N[C@@H](Cc2ccc(O)cc2)C(=O)N[C@@H](CCSC)C(=O)N[C@@H](Cc2ccccc2)C(N)=O)NC(=O)[C@H](Cc2c[nH]c4ccccc24)NC(=O)[C@H](CCCCN)NC(=O)[C@H](Cc2c[nH]cn2)NC(=O)[C@H]([C@@H](C)O)NC(=O)[C@H](CCCNC(=N)N)NC(=O)[C@H](CO)NC3=O)NC(=O)[C@H](CCCCN)NC(=O)[C@H](CC(=O)O)NC(=O)[C@H](CC(N)=O)NC(=O)[C@H](CC(=O)O)NC(=O)[C@@H]2CCCN2C1=O [compound 391] (H-DCLGFMRKCIPDNDKCCRPNLVCSRTHKWCKYMF-NH2; disulfide 2-17, 9-23, 16-30)",IC50,"hNav1.3; Table 26, use, […]",80 nM
same,IC50,"hNav1.5; Table 26, IonWorks Quattro, use, […], read-out: IWQ Use Nav1.5",15.1 µM
same,IC50,"hNav1.7; Table 26, use, […], read-out: IWQ Use Nav1.7",70 nM
"CC[C@H](C)[C@@H]1NC(=O)[C@@H]2CSSC[C@@H]3NC(=O)[C@H](C(C)C)NC(=O)[C@H](CC(C)C)NC(=O)[C@H](CC(N)=O)NC(=O)[C@@H]4CCCN4C(=O)[C@H](CCCNC(=N)N)NC(=O)[C@H](CSSC[C@H](NC(=O)[C@@H](N)CC(=O)O)C(=O)N[C@@H](CC(C)C)C(=O)NCC(=O)N[C@@H](Cc4ccccc4)C(=O)N[C@@H](CO)C(=O)N[C@@H](CCCNC(=N)N)C(=O)N[C@@H](CCCCN)C(=O)N2)NC(=O)[C@H](CSSC[C@@H](C(=O)N[C@@H](CCCCN)C(=O)N[C@@H](Cc2ccc(O)cc2)C(=O)N[C@H](C(=O)N[C@@H](Cc2ccccc2)C(N)=O)C(C)C)NC(=O)[C@H](Cc2c[nH]c4ccccc24)NC(=O)[C@H](CCCCN)NC(=O)[C@H](Cc2c[nH]cn2)NC(=O)[C@H]([C@@H](C)O)NC(=O)[C@H](CCCNC(=N)N)NC(=O)[C@H](CO)NC3=O)NC(=O)[C@H](CCCCN)NC(=O)[C@H](CC(=O)O)NC(=O)[C@H](CC(N)=O)NC(=O)[C@H](CC(=O)O)NC(=O)[C@@H]2CCCN2C1=O [SEQ ID NO: 284] (H-DCLGFSRKCIPDNDKCCRPNLVCSRTHKWCKYVF-NH2; disulfide 2-17, 9-23, 16-30)",IC50,"hNav1.3; clamped to −110 mV, depolarized to −10 mV, 5 min after compound, n=2",710 nM
same,IC50,"hNav1.5; IonWorks Quattro, clamped to −110 mV, depolarized to −10 mV, 5 min after compound, n=2, read-out: IWQ Use Nav1.5",16.9 µM
same,IC50,"hNav1.7; clamped to −110 mV, depolarized to −10 mV, 5 min after compound, n=2, read-out: IWQ Use Nav1.7",1020 nM
CC[C@H](C)[C@@H]1NC(=O)[C@@H]2CSSC[C@@H]3NC(=O)[C@H](C(C)C)NC(=O)[C@H](CC(C)C)NC(=O)[C@H](CC(N)=O)NC(=O)[C@@H]4CCCN4C(=O)[C@H](CCCNC(=N)N)NC(=O)[C@H](CSSC[C@H](NC(=O)[C@@H](N)CC(=O)O)C(=O)N[C@@H](CC(C)C)C(=O)NCC(=O)N[C@@H](Cc4ccccc4)C(=O)N[C@@H](CCSC)C(=O)N[C@@H](CCCNC(=N)N)C(=O)N[C@@H](CCCCN)C(=O)N2)NC(=O)[C@H](CSSC[C@@H](C(=O)N[C@@H](CCCCN)C(=O)N[C@@H](Cc2ccc(O)cc2)C(=O)N[C@H](C(=O)N[C@@H](Cc2ccccc2)C(N)=O)C(C)C)NC(=O)[C@H](Cc2c[nH]c4ccccc24)NC(=O)[C@H](CCCCN)NC(=O)[C@H](Cc2c[nH]cn2)NC(=O)[C@H]([C@@H](C)O)NC(=O)[C@H](CCCNC(=N)N)NC(=O)[C@H](CO)NC3=O)NC(=O)[C@H](CCCCN(C)C)NC(=O)[C@H](CC(=O)O)NC(=O)[C@H](CC(N)=O)NC(=O)[C@H](CC(=O)O)NC(=O)[C@@H]2CCCN2C1=O [compound 313],IC50,hNav1.3; Use,130 nM
same,IC50,hNav1.5; IWQ Use Nav1.5 (μM),10.1 µM
same,IC50,"hNav1.7; Use, read-out: IWQ Use Nav1.7",190 nM
CC[C@H](C)[C@@H]1NC(=O)[C@@H]2CSSC[C@@H]3NC(=O)[C@H](C(C)C)NC(=O)[C@H](CC(C)C)NC(=O)[C@H](CC(N)=O)NC(=O)[C@@H]4CCCN4C(=O)[C@H](CCCNC(=N)N)NC(=O)[C@H](CSSC[C@H](NC(=O)[C@@H](N)CC(=O)O)C(=O)N[C@@H](CC(C)C)C(=O)NCC(=O)N[C@@H](Cc4ccccc4)C(=O)N[C@@H](CCSC)C(=O)N[C@@H](CCCNC(=N)N)C(=O)N[C@@H](CCCCN)C(=O)N2)NC(=O)[C@H](CSSC[C@@H](C(=O)N[C@@H](CCCCN)C(=O)N[C@@H](Cc2ccc(O)cc2)C(=O)N[C@H](C(=O)N[C@@H](Cc2ccccc2)C(=O)N[C@@H](Cc2c[nH]c4ccccc24)C(=O)O)C(C)C)NC(=O)[C@H](Cc2c[nH]c4ccccc24)NC(=O)[C@H](CCCCN)NC(=O)[C@H](Cc2c[nH]cn2)NC(=O)[C@H]([C@@H](C)O)NC(=O)[C@H](CCCNC(=N)N)NC(=O)[C@H](CO)NC3=O)NC(=O)[C@H](CCCCN)NC(=O)[C@H](CC(=O)O)NC(=O)[C@H](CC(N)=O)NC(=O)[C@H](CC(=O)O)NC(=O)[C@@H]2CCCN2C1=O [compound 133],IC50,"hNav1.3; use-dependent, […]",110 nM
same,IC50,"hNav1.5; IonWorks Quattro, use-dependent, […], read-out: IWQ Use Nav1.5",8.28 µM
same,IC50,"hNav1.7; use-dependent, […], read-out: IWQ Use Nav1.7 (μm)",480 nM
"CC[C@H](C)[C@@H]1NC(=O)[C@@H]2CSSC[C@@H]3NC(=O)[C@H](C(C)C)NC(=O)[C@H](CC(C)C)NC(=O)[C@H](CC(N)=O)NC(=O)[C@@H]4CCCN4C(=O)[C@H](CCCNC(=N)N)NC(=O)[C@H](CSSC[C@H](NC(=O)[C@@H](N)CC(=O)O)C(=O)N[C@@H](CC(C)C)C(=O)NCC(=O)N[C@@H](C(C)C)C(=O)N[C@@H](CCSC)C(=O)N[C@@H](CCCNC(=N)N)C(=O)N[C@@H](CCCCN)C(=O)N2)NC(=O)[C@H](CSSC[C@@H](C(=O)N[C@@H](CCCCN)C(=O)N[C@@H](Cc2ccc(O)cc2)C(=O)N[C@H](C(=O)N[C@@H](Cc2ccccc2)C(N)=O)C(C)C)NC(=O)[C@H](Cc2c[nH]c4ccccc24)NC(=O)[C@H](CCC(=O)O)NC(=O)[C@H](Cc2c[nH]cn2)NC(=O)[C@H]([C@@H](C)O)NC(=O)[C@H](CCCNC(=N)N)NC(=O)[C@H](CO)NC3=O)NC(=O)[C@H](CCCCN)NC(=O)[C@H](CC(=O)O)NC(=O)[C@H](CC(N)=O)NC(=O)[C@H](CC(=O)O)NC(=O)[C@@H]2CCCN2C1=O [compound 704] (H-DCLGVMRKCIPDNDKCCRPNLVCSRTHEWCKYVF-NH2; disulfide 2-17, 9-23, 16-30)",IC50,"hNav1.3; use-dependent protocol, hNav1.3",> 5000 nM
same,IC50,"hNav1.5; IonWorks Quattro, use-dependent protocol, hNav1.5, read-out: IWQ Use Nav1.5",49 µM
same,IC50,"hNav1.7; use-dependent protocol, hNav1.7, read-out: IWQ Use Nav1.7",990 nM
"CC[C@H](C)[C@@H]1NC(=O)[C@@H]2CSSC[C@@H]3NC(=O)[C@H](C(C)C)NC(=O)[C@H](CC(C)C)NC(=O)[C@H](CC(N)=O)NC(=O)[C@@H]4CCCN4C(=O)[C@H](CCCNC(=N)N)NC(=O)[C@H](CSSC[C@H](NC(=O)[C@@H](N)CC(=O)O)C(=O)N[C@@H](CC(C)C)C(=O)NCC(=O)N[C@@H](C)C(=O)N[C@@H](CCSC)C(=O)N[C@@H](CCCNC(=N)N)C(=O)N[C@@H](CCCCN)C(=O)N2)NC(=O)[C@H](CSSC[C@@H](C(=O)N[C@@H](CCCCN)C(=O)N[C@@H](Cc2ccc(O)cc2)C(=O)N[C@H](C(=O)N[C@@H](Cc2ccccc2)C(N)=O)C(C)C)NC(=O)[C@H](Cc2c[nH]c4ccccc24)NC(=O)[C@H](CCSC)NC(=O)[C@H](Cc2c[nH]cn2)NC(=O)[C@H]([C@@H](C)O)NC(=O)[C@H](CCCNC(=N)N)NC(=O)[C@H](CO)NC3=O)NC(=O)[C@H](CCCCN)NC(=O)[C@H](CC(=O)O)NC(=O)[C@H](CC(N)=O)NC(=O)[C@H](CC(=O)O)NC(=O)[C@@H]2CCCN2C1=O [compound 770] (H-DCLGAMRKCIPDNDKCCRPNLVCSRTHMWCKYVF-NH2; disulfide 2-17, 9-23, 16-30)",IC50,"hNav1.3; use-dependent block, hNav1.3",4100 nM
same,IC50,hNav1.5; [1],45.4 µM
same,IC50,hNav1.7; [2],1000 nM
"CC[C@H](C)[C@@H]1NC(=O)[C@@H]2CSSC[C@@H]3NC(=O)[C@H](C(C)C)NC(=O)[C@H](CC(C)C)NC(=O)[C@H](CC(N)=O)NC(=O)[C@@H]4CCCN4C(=O)[C@H](CCCNC(=N)N)NC(=O)[C@H](CSSC[C@H](NC(=O)[C@@H](N)CC(=O)O)C(=O)N[C@@H](CC(C)C)C(=O)NCC(=O)N[C@@H](C)C(=O)N[C@@H](CCSC)C(=O)N[C@@H](CCCNC(=N)N)C(=O)N[C@@H](CCCCN)C(=O)N2)NC(=O)[C@H](CSSC[C@@H](C(=O)N[C@@H](CCCCN)C(=O)N[C@@H](Cc2ccc(O)cc2)C(=O)N[C@H](C(=O)N[C@@H](Cc2ccccc2)C(N)=O)C(C)C)NC(=O)[C@H](Cc2c[nH]c4ccccc24)NC(=O)[C@H](CCCCN)NC(=O)[C@H](Cc2c[nH]cn2)NC(=O)[C@H]([C@@H](C)O)NC(=O)[C@H](CCCNC(=N)N)NC(=O)[C@H](CO)NC3=O)NC(=O)[C@H](CCCCN)NC(=O)[C@H](CC(=O)O)NC(=O)[C@H](Cc2cccc3ccccc23)NC(=O)[C@H](CC(=O)O)NC(=O)[C@@H]2CCCN2C1=O [compound 427] (H-DCLGAMRKCIPD[1Nal]DKCCRPNLVCSRTHKWCKYVF-NH2; disulfide 2-17, 9-23, 16-30)",IC50,"hNav1.3; use-dependent block, hNav1.3",1180 nM
same,IC50,hNav1.5; [1],> 5 µM
same,IC50,hNav1.7; [2],650 nM
